For the assay, the system named is Plasmodium falciparum 3D7. In words: P. falciparum 3D7 asexual blood stage assay, Assay Procedure Version 1 (SYBR green readout). Type of assay: cell-based. Particulars: 3D7, Erythrocyte, Version 1 of the assay procedure (no asterisk), 72 h incubation in infected erythrocytes, 10,000 nM to 0.51 nM. As for the experimental part: Asexual Blood Stage Assay
The assay used to measure the effect of test compounds on a bloodstream stage of Plasmodium falciparum 3D7 strain employs SYBR green as the readout. This is a dye that binds to double stranded deoxyribonucleic acid (DNA) with a resulting increase in fluorescence, allowing detection of P. falciparum DNA in infected erythrocytes, and thereby providing a measure of parasite growth and propagation.
P. falciparum Culture Maintenance
Erythrocytes (A+blood) were prepared for both parasite culture and assay by washing 4 times with incomplete media (15.9 g RPMI 1640 (25 mM HEPES, L-glutamine), 1 g NaHCO3, 2 g glucose, 400 μL gentacin (500 mg/mL), 2 mL hypoxanthine solution (13.6 g/L in 0.1M NaOH pH 7.3) in 1 litre of media). The cells were centrifuged at 1800 g for 5 minutes, before decanting the supernatant and re-suspending in fresh incomplete media. On the final wash, the cells were re-suspended in complete media (incomplete media with 5 g/L AlbumaxII), and centrifuged at 1800 g for 3 minutes. This cell sediment was treated as 100% haematocrit.
P. falciparum 3D7 was cultured in erythrocytes at 5% haematocrit in complete media at 37° C. (1% O2, 3% CO2, balance N2). Cultures were split on a weekly basis to achieve a 1% parasitaemia in erythrocites at 5% haematocrit in fresh media. Culture media is replaced by fresh media every other day (2 times during the week).
Assay Procedure—Version 1
On day 1, test compounds were added to assay plates using Echo dispensing technology (3 fold dilution and 10 points titration). 50 nL of each compound dilution was added to 50 μL of culture (5% haematocrit, 0.5% parasitaemia) and incubated for 72 h at 37° C. (1% O2, 3% CO2, balance N2). Final concentrations of test compounds ranged from 10,000 nM to 0.51 nM, in […].
On day 4, 10 μL SYBR green (Invitrogen S7563 supplied as 10,000×concentrate in DMSO) pre-diluted to 3× concentrate with Lysis buffer (20 mM Tris pH 7.9, 5% EDTA, 0.16% w/v, 1.6% TX100 v/v) was added to the cultures and incubated in the dark, overnight, at room temperature.
On day 5, fluorescent signal was measured using a BioTek plate reader (excitation 485 nm, emission 528 nm). All data were processed using IDBS ActivityBase. Raw data were converted into percent inhibition through linear regression by setting the high inhibition control as 100% and the no inhibition control as 0%. Quality control criteria for passing plates were as follows: Z′>0.5, S:B>3, % CV(no inhibition control)<15. The formula used to calculate Z′ is
All EC50 curve fitting was undertaken using the following 4 parametric equation:
[formula] where A=% inhibition at bottom; B=% inhibition at top; C=EC50; D=slope; x=inhibitor concentration; and y=% inhibition. […] Assay Procedure—Version 2
For orientation: IC50 means the concentration that inhibits the measured activity by half. As for `C[C@@]1(c2cccc(Nc3cccc(Cl)c3)c2Cl)CC(=O)N(C2CCOCC2)C(=N)N1` [Example 7, (6S)-6-[2-Chloro-3-(3-chloro-anilino)phenyl]-2-imino-6-methyl-3-(tetrahydropyran-4-yl)hexahydropyrimidin-4-one], the IC50 is 334 nM.
`C[C@@]1(c2cccc(Nc3ccc(F)cc3)c2Cl)CC(=O)N(C2CCCOC2)C(=N)N1` (single isomer, unassigned) [Example 189, (6S)-6-[2-Chloro-3-(4-fluoro-anilino)phenyl]-2-imino-6-methyl-3-[(3S*)-tetrahydro-pyran-3-yl]hexahydropyrimidin-4-one] yielded a half-inhibitory concentration (IC50) of 820 nM.
The figure for `C[C@@]1(c2cccc(Nc3ccccc3F)c2Cl)CC(=O)N(C2CCOCC2)C(=N)N1` [Example 36, (6S)-6-[2-Chloro-3-(2-fluoro-anilino)phenyl]-2-imino-6-methyl-3-(tetrahydropyran-4-yl)hexahydropyrimidin-4-one] is 2900 nM.
To `COc1ccc(Nc2cccc([C@]3(C)CC(=O)N(C4CCOCC4)C(=N)N3)c2Cl)cc1OC` [Example 164, (6S)-6-[2-Chloro-3-(3,4-dimethoxyanilino)phenyl]-2-imino-6-methyl-3-(tetrahydro-pyran-4-yl)hexahydropyrimidin-4-one] belongs 2200 nM.
To `C[C@@]1(c2cccc(Nc3cccc(F)c3)c2Cl)CC(=O)N(C2CCOCC2)C(=N)N1` [Example 168, (6S)-6-[2-Chloro-3-(3-fluoro-anilino)phenyl]-2-imino-6-methyl-3-(tetrahydropyran-4-yl)hexahydropyrimidin-4-one] belongs 252 nM.
In turn, `C[C@@]1(c2cccc(Nc3cccnc3C(F)(F)F)c2Cl)CC(=O)N(C2CCOCC2)C(=N)N1` [Example 26, (6S)-6-(2-Chloro-3-{[2-(trifluoromethyl)pyridin-3-yl]amino}phenyl)-2-imino-6-methyl-3-(tetrahydropyran-4-yl)hexahydropyrimidin-4-one] returned an IC50 of 331 nM.
To `C[C@@]1(c2cccc(Nc3ccc(F)cc3)c2Cl)CC(=O)N(CC2CCOCC2)C(=N)N1` (single isomer, unassigned) [Example 170, (6S*)-6-[2-Chloro-3-(4-fluoro-anilino)phenyl]-2-imino-6-methyl-3-(tetrahydropyran-4-ylmethyl)hexahydropyrimidin-4-one] belongs 492 nM; to `C[C@@]1(c2cccc(Nc3ccc(C(F)(F)F)cc3)c2Cl)CC(=O)N(CC2CCOCC2)C(=N)N1` [Example 173, (6S)-6-{2-Chloro-3-[4-(trifluoromethyl)anilino]-phenyl}-2-imino-6-methyl-3-(tetrahydropyran-4-ylmethyl)-hexahydropyrimidin-4-one], 1540 nM; to `C[C@@]1(c2cccc(Nc3ccc(C(F)(F)F)cc3)c2Cl)CC(=O)N(C2CCOCC2)C(=N)N1` [Example 11, (6S)-6-{2-Chloro-3-[4-(tri-fluoromethyl)anilino]phenyl}-2-imino-6-methyl-3-(tetrahydro-pyran-4-yl)hexahydropyrimidin-4-one], 820 nM.
To `C[C@@]1(c2cccc(Nc3ccccc3C#N)c2Cl)CC(=O)N(C2CCOCC2)C(=N)N1` [Example 17, 2-{2-Chloro-3-[(4S)-2-imino-4-methyl-6-oxo-1-(tetrahydro-pyran-4-yl)hexahydropyrimidin-4-yl]anilino}benzonitrile] belongs 270 nM.
The molecule `C[C@@]1(c2cccc(Nc3ccc(S(C)(=O)=O)cc3)c2Cl)CC(=O)N(C2CCOCC2)C(=N)N1` [Example 39, (6S)-6-[2-Chloro-3-(4-methyl-sulfonylanilino)phenyl]-2-imino-6-methyl-3-(tetrahydro-pyran-4-yl)hexahydropyrimidin-4-one] gave an IC50 of 2090 nM.
To `C[C@@]1(c2cccc(Nc3ccccc3)c2Cl)CC(=O)N(C2CCCCC2)C(=N)N1` [Example 4, (6S)-6-(3-Anilino-2-chloro-phenyl)-3-cyclohexyl-2-imino-6-methylhexahydropyrimidin-4-one] belongs 75 nM; to `C[C@@]1(c2cccc(Nc3ccc(F)cc3)c2Cl)CC(=O)N(C2CCOCC2)C(=N)N1` [Example 12, (6S)-6-[2-Chloro-3-(4-fluoro-anilino)phenyl]-2-imino-6-methyl-3-(tetrahydropyran-4-yl)hexahydropyrimidin-4-one], 200 nM.
To `Cc1ncccc1Nc1cccc([C@]2(C)CC(=O)N(C3CCOCC3)C(=N)N2)c1Cl` [Example 28, (6S)-6-{2-Chloro-3-[(2-methyl-pyridin-3-yl)amino]phenyl}-2-imino-6-methyl-3-(tetrahydro-pyran-4-yl)hexahydropyrimidin-4-one] belongs 2960 nM; to `C[C@@]1(c2cccc(Nc3ccc(C#N)c(F)c3)c2Cl)CC(=O)N([C@H]2C[C@@](C)(O)C2)C(=N)N1` [Example 121, 4-{2-Chloro-3-[(4S)-1-(3-hydroxy-3-methylcyclobutyl)-2-imino-4-methyl-6-oxo-hexahydropyrimidin-4-yl]-anilino}-2-fluorobenzonitrile], 1660 nM; to `Cc1cccc(Nc2cccc([C@]3(C)CC(=O)N(C4CCOCC4)C(=N)N3)c2Cl)c1` [Example 8, (6S)-6-[2-Chloro-3-(3-methyl-anilino)phenyl]-2-imino-6-methyl-3-(tetrahydropyran-4-yl)hexahydropyrimidin-4-one], 330 nM.
To `C[C@@]1(c2cccc(Nc3cc(Cl)cc(C#N)c3)c2Cl)CC(=O)N(C2CCOCC2)C(=N)N1` [Example 34, 3-Chloro-5-{2-chloro-3-[(4S)-2-imino-4-methyl-6-oxo-1-(tetrahydropyran-4-yl)-hexahydropyrimidin-4-yl]-anilino}benzonitrile] belongs 790 nM; to `C[C@@]1(c2cccc(Nc3cnc4ccccc4c3)c2Cl)CC(=O)N(C2CCOCC2)C(=N)N1` [Example 30, (6S)-6-[2-Chloro-3-(quinolin-3-ylamino)phenyl]-2-imino-6-methyl-3-(tetrahydropyran-4-yl)hexahydropyrimidin-4-one], 640 nM; to `C[C@@]1(c2cccc(Nc3ccc(N4CCOCC4)nc3)c2Cl)CC(=O)N(C2CCOCC2)C(=N)N1` [Example 25, (6S)-6-(2-Chloro-3-{[6-(morpholin-4-yl)pyridin-3-yl]amino}phenyl)-2-imino-6-methyl-3-(tetrahydropyran-4-yl)hexahydropyrimidin-4-one], 821 nM.
The molecule `C[C@@]1(c2cccc(Nc3cccc(S(C)(=O)=O)c3)c2Cl)CC(=O)N(C2CCOCC2)C(=N)N1` [Example 41, (6S)-6-[2-Chloro-3-(3-methyl-sulfonylanilino)phenyl]-2-imino-6-methyl-3-(tetrahydro-pyran-4-yl)hexahydropyrimidin-4-one] gave an IC50 of 1950 nM.
The figure for `Cc1ccc(Nc2cccc([C@]3(C)CC(=O)N(C4CCOCC4)C(=N)N3)c2Cl)cn1` [Example 14, (6S)-6-{2-Chloro-3-[(6-methyl-pyridin-3-yl)amino]phenyl}-2-imino-6-methyl-3-(tetrahydro-pyran-4-yl)hexahydropyrimidin-4-one] is 280 nM; for `C[C@@H]1C[C@H](N2C(=N)N[C@](C)(c3cccc(Nc4cnc(C5CC5)nc4)c3Cl)CC2=O)CCO1` (relative stereo) [Example 204, (6S)-6-{2-Chloro-3-[(2-cyclo-propylpyrimidin-5-yl)amino]-phenyl}-2-imino-6-methyl-3-[(2R*,4R*)-2-methyltetrahydro-pyran-4-yl]hexahydropyrimidin-4-one] it is 31 nM.
To `COc1ccc(Nc2cccc([C@]3(C)CC(=O)N(C4CCOCC4)C(=N)N3)c2Cl)cc1` [Example 159, (6S)-6-[2-Chloro-3-(4-methoxy-anilino)phenyl]-2-imino-6-methyl-3-(tetrahydropyran-4-yl)hexahydropyrimidin-4-one] belongs 2280 nM; to `C[C@@]1(c2cccc(Nc3cccc4ncccc34)c2Cl)CC(=O)N(C2CCOCC2)C(=N)N1` [Example 21, (6S)-6-[2-Chloro-3-(quinolin-5-ylamino)phenyl]-2-imino-6-methyl-3-(tetrahydropyran-4-yl)hexahydropyrimidin-4-one], 1180 nM.

The values above are taken from patent publication US11479546B2, “Antimalarial hexahydropyrimidine analogues” (UCB Biopharma SRL, priority 2018, dated 2022).
